Measurements reported in patent US6814952B2, “Diagnostic imaging agent useful for selecting a therapy for cancerous bone metastasis” (Nihon Medi-Physics Co., Ltd., priority 2001, dated 2004).

What was measured:
osteoclast [1] = test: Uptake by osteoclast (cellular uptake experiment); assay type: cell-based, mouse
From the text: (§1) Osteoblast was isolated from the parietal bone of a newborn mouse by means of stepwise enzyme digestion according to a method described by Takahashi et al. (Takahashi et al., Endocrinology, 123: 2600-2602 (1988)), and cultured using α-MEM (10% fetal calf serum) for 6 to 8 days for use in the following experiments. Furthermore, osteoclast was obtained by co-culturing osteoblastic cells and bone marrow cells for 6 to 8 days using α-MEM (10% fetal calf serum, 10^−8 M vitamin D3, pH 6.2) on a collagen-coated dish according to a method described by Takahashi et al. (Takahashi et al., Endocrinology, 122: 1373-1382 (1988)). The osteoclast was identified by means of tartaric acid-resistant acidic phosphatase dyeing.
Experiment of uptake by cells: The osteoblast or the co-cultured osteoclast was isolated using 35% Percoll and incubated using α-MEM (10% fetal calf serum) at 37° C. in an atmosphere of 5% CO2 and 95% air for 3 hours. The incubated cells were washed with an incubation buffer of pH 7.4 (10 mM HEPES, 5 mM glucose, 150 mM NaCl, 5 mM KCl, 1.8 mM MgSO4, 1 mM CaCl2) three times, and pre-incubated using the same buffer at 37° C. for 30 minutes. Then, the cells in incubation buffer containing ^99mTc(V)-DMS at a concentration of 129.5 kBq/mL were allowed to infiltrate, and washed with the ice-cooled incubation buffer three times, 5, 10, 30 and 60 minutes later. Then, the cells were lysed with 0.2N NaOH, and radioactivity taken up by the cells was measured using a gamma counter. After completion of the radioactivity measurement, the amount of proteins contained in the cell lysate was measured using BCA Protein Assay Kit (produced by Pierce), and the ^99mTc-DMS uptake per unit protein mass (% dose/mg protein) was obtained. As to ^99mTc-HMDP, a similar experiment was carried out for comparison.
In the method described in Example 2, the pH of the incubation buffer was set at 6.2, 6.6, 7.0, 7.4, 7.8 or 8.2, and the incubation time for ^99mTc(V)-DMS uptake was set at 10 minutes, to examine the effect of pH on the uptake of ^99mTc(V)-DMS by osteoclast and osteoblast. […]

osteoblast = test: Uptake by osteoblast (cellular uptake experiment); assay type: cell-based, mouse
From the text: as §1
Experiment of uptake by cells: The osteoblast or the co-cultured osteoclast was isolated using 35% Percoll and incubated using α-MEM (10% fetal calf serum) at 37° C. in an atmosphere of 5% CO2 and 95% air for 3 hours. […] Then, the cells were lysed with 0.2N NaOH, and radioactivity taken up by the cells was measured using a gamma counter. After completion of the radioactivity measurement, the amount of proteins contained in the cell lysate was measured using BCA Protein Assay Kit (produced by Pierce), and the ^99mTc-DMS uptake per unit protein mass (% dose/mg protein) was obtained. […]

[2] = system: Na^+-dependent phosphate transporter; test: Participation of sodium ion-dependent phosphate transporter in uptake by osteoclast (phosphate anion, PFA, Na+, pH and cation effects); assay type: cell-based, mouse; settings: varied [Pi], PFA 1 or 5 mM, cations, compared with K2H^32PO4, FIGS. 6 through 10
Procedure: In the method described in Example 2, an incubation buffer of pH 7.4 was used for pre-incubation, and the buffer containing ^99mTc(V)-DMS was an incubation buffer of pH 7.4 with the phosphate anion concentration ([Pi]) adjusted to 0 mM, 0.05 mM, 0.1 mM, 0.5 mM, 1.0 mM or 5.0 mM, while the incubation time was set at 5 minutes, to measure the uptake of ^99mTc(V)-DMS by osteoclast.
Furthermore, a similar experiment was carried out except that the buffer containing ^99mTc(V)-DMS was an incubation buffer of pH 7.4 containing 1 mM or 5 mM of phosphonoformic acid (PFA) which was a sodium ion-dependent phosphate transporter inhibitor.
Moreover, a similar experiment was carried out except that the buffer containing ^99mTc(V)-DMS was an incubation buffer of pH 7.4 with the sodium ion concentration ([Na^+]) adjusted in a range from 0.1 mM to 150 mM, and the incubation time for ^99mTc(V)-DMS uptake was set at 30 seconds, to measure the uptake of ^99mTc(V)-DMS into osteoclast.
In the method described in Example 2, the pH of the incubation buffer was set at 6.2, 6.6, 7.0, 7.4, 7.8 or 8.2, and the incubation time for ^99mTc(V)-DMS uptake was set at 30 seconds, to examine effct of pH on the uptake of ^99mTc(V)-DMS into osteoclast. A similar experiment was carried out for K2H^32PO4, to compare the behaviors of ^99mTc(V)-DMS and K2H^32PO4. […]

osteoclast [3] = test: Autoradiography of rat knee joint compared with osteoclast/osteoblast marker staining; assay type: in vivo, Wistar male rat; settings: inferred from ^186Re(V)-DMS autoradiography in rat knee joint
Procedure: ^99mTc is unsuitable for autoradiography since it has a half life of 6 hours and is a gamma ray-emitting nuclide. Considering this, a radioisotope of Re that is a homologous element of Tc was used to evaluate the in vivo accumulation of ^99mTc(V)-DMS in osteoclast.
^186Re(V)-DMS prepared according to a method described by Horiuchi et al. (Nucl. Med. Biol. 26: 771-779 (1999)) was administered in an amount of 370 kBq to a Wistar male rat, and the rat was sacrificed 3 hours later. Knee joints were extracted, and 30 μm thick specimens were prepared and autoradiographed. Furthermore, from the same regions, 20 μm thick specimens were prepared and the tartaric acid-resistant acidic phosphatase as an osteoclast marker or the alkaline phosphatase as an osteoblast marker was detected by means of staining. The results of the autoradiography and staining were compared to evaluate the accumulation of ^99mTc(V)-DMS in osteoclast.

Substance: ^99mTc(V)-dimercaptosuccinic acid [^99mTc(V)-DMS]
- effect of pH on the cellular uptake by osteoclast (osteoclast [1]; pH 6.2 to 8.2, incubation time 10 minutes, FIG. 4): remarkably increases as the pH value decreases
- effect of incubation modality (extracellular pH) on the cellular uptake by osteoclast (osteoclast [1]; pH of buffers for both pre-incubation and uptake 6.2, versus 7.4/6.2 and 7.4/7.4, 10 minutes, FIG. 5): the uptake of ^99mTc(V)-DMS rises
- cellular uptake by osteoclast (uptake per unit protein mass) (osteoclast [1]; time course 5, 10, 30 and 60 minutes, incubation buffer pH 7.4, 37° C., FIG. 2): taken up by osteoclastic cells in an especially large amount
- effect of pH on the cellular uptake by osteoblast (osteoblast; pH 6.2 to 8.2, incubation time 10 minutes, FIG. 3): does not show any significant difference
- cellular uptake by osteoblast (uptake per unit protein mass) (osteoblast; time course 5, 10, 30 and 60 minutes, incubation buffer pH 7.4, 37° C., FIG. 1): taken up by osteoblastic cells in an amount smaller than ^99mTc-HMDP
- route of uptake by osteoclast [2]: taken up by osteoclast through the Na^+-dependent phosphate transporter
- accumulation in osteoclast in vivo, inferred from ^186Re(V)-DMS surrogate (osteoclast [3]): accumulation of ^99mTc(V)-DMS in osteoclast is specific
